According to PubChem BioAssay AID1188 (EPA DSSTox, 2008):
Calls of active or inactive are those of the source.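 The calls were made as follows: active = a concentration killing half the fathead minnows in the acute test was determined; inconclusive = some fish died but not half at top dose; inactive = no fish died even at top dose.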

System: Fathead minnow (Pimephales promelas) acute toxicity, lethality
Test: DSSTox (EPAFHM) EPA Fathead Minnow Acute Toxicity
Summary of the method: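 Activity score is an integer 1–100 scaling of log10(1/LC50 in mmol) between dataset minimum and maximum, highest potency = 100. Underlying LC50 values (mg) come from the U.S. EPA MED database.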

Question: C1CCC(C2CCCCC2)CC1 was tested. Which outcome did it give?
Answer: inactive; moa not determined either due to lack of toxicity at saturation or late test res

Question: Which Potency does the source give for CC(=O)CC(C)=O here?
Answer: 1350 µM

Question: For CCCCCCCCOc1ccccc1NC(C)=O, which Potency is on record?
Answer: 1.71 µM

Question: COc1ccc(C(C)=O)c(OC)c1OC was tested. Which Potency did it give?
Answer: 947 µM

Question: CCCCCc1ccccc1 was tested. Which Potency did it give?
Answer: 11.5 µM

Question: With CCCCCCCCCc1ccc(O)cc1 as the compound, how does the Potency read?
Answer: 0.635 µM

Question: C=C(C)C(=O)OCc1ccccc1 was tested. Which Potency did it give?
Answer: 26.5 µM

Question: For CCCCC(=O)CCCC, which Potency is on record?
Answer: 218 µM

Question: How did the Potency turn out when CCOC(=O)c1ccccc1C(=O)OCC was run?
Answer: 143 µM

Question: Which outcome does the source give for ClC(Cl)=C(Cl)c1c(Cl)c(Cl)c(Cl)c(Cl)c1Cl here?
Answer: inactive; moa not determined either due to lack of toxicity at saturation or late test res

Question: Which Potency does the source give for C#CC1(O)CCCCC1 here?
Answer: 2060 µM

Question: For CC(C)CC=O, which Potency is on record?
Answer: 37.7 µM

Question: Which Potency does the source give for CCCCC(CC)CO (stereo not drawn) here?
Answer: 217 µM

Question: CCCC(C)C=O (stereo not drawn) was tested. Which Potency did it give?
Answer: 188 µM

Question: For C=CC(Cl)CCl (stereo not drawn), which Potency is on record?
Answer: 65.4 µM

Question: O=C1c2ccccc2C(=O)c2ccccc21 was tested. Which outcome did it give?
Answer: inactive; moa not determined either due to lack of toxicity at saturation or late test res

Question: CCN(CC)c1ccc(C=O)cc1 was tested. Which Potency did it give?
Answer: 135 µM

Question: With O[C@@H]1CCCC[C@H]1c1ccccc1 as the compound, how does the Potency read?
Answer: 252 µM

Question: CCCCCCCCCCCCCC=O was tested. Which outcome did it give?
Answer: inactive; moa not determined either due to lack of toxicity at saturation or late test res

Question: With O=S(c1ccc(Cl)cc1)c1ccc(Cl)cc1 as the compound, how does the outcome read?
Answer: inactive; moa not determined either due to lack of toxicity at saturation or late test res

Question: For OC(c1ccc(Cl)cc1)(c1ccc(Cl)cc1)C(Cl)(Cl)Cl, which Potency is on record?
Answer: 1.67 µM

Question: Which Potency does the source give for ClCc1ccc(CCl)cc1 here?
Answer: 0.223 µM

Question: With Oc1ccc(Oc2ccccc2)cc1 as the compound, how does the Potency read?
Answer: 26.6 µM

Question: COc1ccc(OC)cc1 was tested. Which Potency did it give?
Answer: 847 µM

Question: How did the Potency turn out when CC(=O)OC(C)(C)C was run?
Answer: 2820 µM

Question: Which Potency does the source give for N#Cc1ccccn1 here?
Answer: 6970 µM

Question: C#CCC(C)O (stereo not drawn) was tested. Which Potency did it give?
Answer: 417 µM

Question: How did the Potency turn out when CCOP(=O)(OCC)SCCSCC was run?
Answer: 61.9 µM

Question: How did the Potency turn out when CCCCCCN was run?
Answer: 559 µM

Question: With O=C(NC1CCCCC1)OCCCl as the compound, how does the Potency read?
Answer: 170 µM

Question: How did the Potency turn out when Clc1ccccc1 was run?
Answer: 150 µM

Question: For CC(=O)/C=C/C1=C(C)CCCC1(C)C, which Potency is on record?
Answer: 26.5 µM

Question: Which Potency does the source give for CCN(CC)c1ccccc1 here?
Answer: 110 µM

Question: For OCC(Br)CBr (stereo not drawn), which Potency is on record?
Answer: 326 µM

Question: For CCCC=O, which Potency is on record?
Answer: 204 µM

Question: For Nc1ccc(F)cc1C(F)(F)F, which Potency is on record?
Answer: 165 µM

Question: With O=Cc1c(F)cccc1Cl as the compound, how does the Potency read?
Answer: 59.3 µM

Question: For CCOP(=S)(OCC)Oc1cc(C)nc(C(C)C)n1, which Potency is on record?
Answer: 30.7 µM

Question: With NC(=O)c1cccc(Br)c1 as the compound, how does the Potency read?
Answer: 463 µM

Question: With C=C(C)[C@H]1Cc2c(ccc3c2O[C@@H]2COc4cc(OC)c(OC)cc4[C@@H]2C3=O)O1 as the compound, how does the Potency read?
Answer: 0.0132 µM

Question: How did the Potency turn out when CCCCCCCCCN was run?
Answer: 15 µM

Question: How did the Potency turn out when C1CN2CCN1CC2 was run?
Answer: 15400 µM

Question: Which Potency does the source give for CNC(=O)Oc1cccc2ccccc12 here?
Answer: 43.5 µM

Question: CC(C)(C)SSC(C)(C)C was tested. Which Potency did it give?
Answer: 7.68 µM

Question: Which Potency does the source give for Cc1ccc(C)o1 here?
Answer: 740 µM

Question: How did the Potency turn out when COc1cc(C=O)ccc1O was run?
Answer: 551 µM

Question: How did the Potency turn out when COCCN was run?
Answer: 6980 µM

Question: How did the Potency turn out when C1N2CN3CN1CN(C2)C3 was run?
Answer: 355000 µM

Question: How did the Potency turn out when O=Cc1c(F)c(F)c(F)c(F)c1F was run?
Answer: 5.61 µM

Question: How did the Potency turn out when Oc1c(Cl)cc(Cl)c(Cl)c1Cl was run?
Answer: 4.44 µM

Question: How did the Potency turn out when Cc1ccc(C)c(C)c1 was run?
Answer: 64.2 µM

Question: With CCOc1ccc(C=O)cc1 as the compound, how does the Potency read?
Answer: 187 µM

Question: For c1ccc(-c2nc(-c3ccccc3)c(-c3ccccc3)[nH]2)cc1, which outcome is on record?
Answer: inactive; moa not determined either due to lack of toxicity at saturation or late test res

Question: CCC(C)C=O (stereo not drawn) was tested. Which Potency did it give?
Answer: 116 µM

Question: CCCCCCCCCCCCc1ccc(N)cc1 was tested. Which outcome did it give?
Answer: inactive; moa not determined either due to lack of toxicity at saturation or late test res

Question: With Nc1ccc([N+](=O)[O-])cc1Cl as the compound, how does the Potency read?
Answer: 116 µM

Question: Which Potency does the source give for CC(C)C(O)C(C)C here?
Answer: 1400 µM

Question: CCCCCC was tested. Which Potency did it give?
Answer: 29 µM

Question: Oc1c(I)cc(I)cc1I was tested. Which Potency did it give?
Answer: 2.56 µM

Question: With N#CCC#N as the compound, how does the Potency read?
Answer: 8.48 µM

Question: For C=Cn1c2ccccc2c2ccccc21, which Potency is on record?
Answer: 0.0166 µM

Question: Which outcome does the source give for c1cc[c]([Sn]([c]2ccccc2)([c]2ccccc2)[c]2ccccc2)cc1 here?
Answer: inactive; moa not determined either due to lack of toxicity at saturation or late test res

Question: How did the Potency turn out when CC1(N)CCC(C(C)(C)N)CC1 (stereo not drawn) was run?
Answer: 383 µM

Question: C=CC(C)(O)CC/C=C(\C)CCC=C(C)C (stereo not drawn) was tested. Which Potency did it give?
Answer: 6.43 µM

Question: With Cc1cccc(Cl)n1 as the compound, how does the Potency read?
Answer: 1820 µM

Question: For Oc1cccnc1Cl, which Potency is on record?
Answer: 4800 µM

Question: For CC(C)(C)c1ccc(Oc2cccc(C=O)c2)cc1, which Potency is on record?
Answer: 1.45 µM

Question: How did the Potency turn out when CCCBr was run?
Answer: 547 µM

Question: Which Potency does the source give for COC(=O)c1ccc(C#N)cc1 here?
Answer: 290 µM

Question: COCCCNCc1cc(OC)c(OC)c(OC)c1 was tested. Which Potency did it give?
Answer: 505 µM

Question: For CC(C)=C1C=C2CC[C@@H]3[C@](C)(CCC[C@@]3(C)C(=O)O)[C@H]2CC1, which Potency is on record?
Answer: 4.93 µM

Question: OCC(Cl)(Cl)Cl was tested. Which Potency did it give?
Answer: 2000 µM

Question: CC(=O)Nc1ccc(O)cc1 was tested. Which Potency did it give?
Answer: 5390 µM

Question: For COC(=O)c1ccc([N+](=O)[O-])cc1, which Potency is on record?
Answer: 131 µM

Question: Which Potency does the source give for COC(C)(C)C here?
Answer: 7620 µM

Question: With Nc1ccccc1Cl as the compound, how does the Potency read?
Answer: 45 µM

Question: With NCCCN as the compound, how does the Potency read?
Answer: 16100 µM

Question: Which outcome does the source give for CCCCCCC(=O)CCCCCC here?
Answer: inactive; moa not determined either due to lack of toxicity at saturation or late test res

Question: c1ccncc1 was tested. Which Potency did it give?
Answer: 1260 µM

Question: ClCCCCCCl was tested. Which Potency did it give?
Answer: 179 µM

Question: For CC(=O)C(C)CN(C)C (stereo not drawn), which Potency is on record?
Answer: 65.8 µM

Question: Which Potency does the source give for CC(O)CC(C)(C)O (stereo not drawn) here?
Answer: 90500 µM

Question: CC(Cl)CCl (stereo not drawn) was tested. Which Potency did it give?
Answer: 1120 µM

Question: How did the outcome turn out when C(/C=C/c1ccccc1)=C\c1ccccc1 was run?
Answer: inactive; moa not determined either due to lack of toxicity at saturation or late test res

Question: How did the Potency turn out when CC(C)C(C(=O)OC(C#N)c1cccc(Oc2ccccc2)c1)c1ccc(Cl)cc1 (stereo not drawn) was run?
Answer: 0.0121 µM

Question: For O=Cc1cccc(Oc2ccc(Cl)c(Cl)c2)c1, which Potency is on record?
Answer: 1.12 µM

Question: CSCCCCCCSC was tested. Which Potency did it give?
Answer: 56.6 µM

Question: Which Potency does the source give for ClCC(Cl)Cl here?
Answer: 612 µM

Question: CNc1ccccc1 was tested. Which Potency did it give?
Answer: 933 µM

Question: How did the Potency turn out when CC(=O)CCC=C(C)C was run?
Answer: 679 µM

Question: Which Potency does the source give for COc1cccc(O)c1 here?
Answer: 596 µM

Question: CCOC(=O)N(C(=O)OCC)C(=O)OCC was tested. Which Potency did it give?
Answer: 57 µM

Question: With BrC(Br)c1ccccc1C(Br)Br as the compound, how does the Potency read?
Answer: 1.04 µM

Question: Which Potency does the source give for ClCCCCl here?
Answer: 982 µM

Question: Which Potency does the source give for CC[N+](CC)(CC)Cc1ccccc1 here?
Answer: 707 µM

Question: For CCOCCOCCO, which Potency is on record?
Answer: 198000 µM

Question: CC(C)(O)C(Cl)(Cl)Cl was tested. Which Potency did it give?
Answer: 362 µM

Question: O=[N+]([O-])c1c(Cl)cc(Cl)c([N+](=O)[O-])c1Cl was tested. Which Potency did it give?
Answer: 0.818 µM

Question: How did the Potency turn out when CCCCOC(=O)c1ccccc1C(=O)OCCCC was run?
Answer: 3.59 µM

Question: Which Potency does the source give for O=P(c1ccccc1)(c1ccccc1)c1ccccc1 here?
Answer: 193 µM

Question: For CCc1cccc(CC)c1, which Potency is on record?
Answer: 30.9 µM

Question: How did the Potency turn out when Nc1ccc([N+](=O)[O-])cc1 was run?
Answer: 905 µM

Question: For CCOCCOC(C)=O, which Potency is on record?
Answer: 319 µM

Question: How did the Potency turn out when Clc1cccc(Cl)c1C(Cl)Cl was run?
Answer: 4.22 µM

Question: CC(=O)c1ccc(Cl)c(Cl)c1Cl was tested. Which Potency did it give?
Answer: 8.95 µM

Question: With C#CC(C)(O)c1ccccc1 (stereo not drawn) as the compound, how does the Potency read?
Answer: 773 µM

Question: Cc1cc2nc3c(=O)[nH]c(=O)nc-3n(C[C@H](O)[C@H](O)[C@H](O)CO)c2cc1C was tested. Which outcome did it give?
Answer: inactive; moa not determined either due to lack of toxicity at saturation or late test res

Question: Which Potency does the source give for CCCCCCCBr here?
Answer: 8.21 µM

Question: With CCCCC(CC)COC(=O)c1ccccc1C(=O)OCC(CC)CCCC (stereo not drawn) as the compound, how does the outcome read?
Answer: inactive; moa not determined either due to lack of toxicity at saturation or late test res

Question: With O=Cc1cccnc1 as the compound, how does the Potency read?
Answer: 153 µM

Question: With O=C(Oc1ccccc1)c1ccccc1O as the compound, how does the Potency read?
Answer: 5.51 µM

Question: NC(=O)c1ccccc1N was tested. Which Potency did it give?
Answer: 2900 µM

Question: For C=C[C@@]1(C)CC[C@H]2C(=CC[C@@H]3[C@]2(C)CCC[C@@]3(C)C(=O)O)C1, which Potency is on record?
Answer: 2.88 µM

Question: With CCc1ccc(O)cc1 as the compound, how does the Potency read?
Answer: 85.1 µM

Question: How did the Potency turn out when CCC(=O)c1ccc(N)cc1 was run?
Answer: 979 µM

Question: For Cc1ccc(Cl)c(Cl)c1, which Potency is on record?
Answer: 18.1 µM

Question: With ClC(Cl)=C(Cl)Cl as the compound, how does the Potency read?
Answer: 99.5 µM

Question: With CC(=O)c1cccc(N)c1 as the compound, how does the Potency read?
Answer: 2830 µM
